{"source": "patent US20200078395A1", "about": "“AVERTING COMPLICATIONS OF PUMP INHIBITOR THERAPY BY EFFERVESCENT CALCIUM MAGNESIUM CITRATE” (THE BOARD OF REGENTS OF THE UNIVERSITY OF TEXAS SYSTEM, priority 2018, published 2020)", "key": {"[1]": {"experiment": "Serum magnesium in CKD Stage 3 and Stage 5D after EffCaMgCit or calcium acetate", "format": "in vivo, human"}, "[2]": {"experiment": "Multi-dosing crossover trial on esomeprazole: post-load serum calcium", "format": "in vivo, human", "conditions": "for number of subjects with hypocalcemia or marginal hypocalcemia (serum calcium <9 mg/dL): of 22 subjects; for subjects with low or marginally low serum calcium (<9 mg/dL): baseline 18%", "method": "(§1) The inventors conducted a multi-dosing trial, in which the effect of EffCaMgCit was compared with placebo in a crossover trial in 22 healthy subjects taking PPI at twice the usual dose (esomeprazole 40 mg/day) for 28 days, representing the recommended treatment format for erosive esophagitis-gastritis. During the EffCaMgCit phase, subjects took EffCaMgCit containing 19 meq calcium and 10 meq magnesium twice per day for 28 days. During the Placebo Phase, the subjects took placebo for 28 days. During both phases, the subjects took esomeprazole 40 mg per day. Blood samples were obtained 4 hours after EffCaMgCit dose (in multi-dosing trials with esomeprazole), rather than in the fasting state. Tamsen: no study with PPI in CKD. Peak absorption of calcium and magnesium occurs 2-4 hours after oral load. Thus, pharmacokinetic and pharmacodynamic effects of EffCaMgCit can best be captured in post-load samples.\nA venous blood sample was obtained at 4 hours after the morning dose of EffCaMgCit or placebo, for the analysis of Ca, PTH, CTX and Mg after 2 weeks and 4 weeks of treatment. […] In the Placebo group (while on esomeprazole), a low or marginally low serum calcium (<9 mg/dL) was encountered in 23% of subjects at 2 weeks and in 18% of subjects at 4 weeks. […] Thus, not only did EffCaMgCit raise serum calcium, but it also corrected low or marginally low serum calcium. At two weeks of placebo (esomeprazole alone), a higher percentage of subjects had low or marginally low serum calcium than at baseline before esomeprazole (23% vs. 18%). Thus, a low or marginally low serum calcium developed during two weeks of esomeprazole therapy in an additional patient. This subject had normal serum calcium on EffCaMgCit (plus esomeprazole). FIGS. 1 and 2."}, "serum PTH": {"system": "serum PTH", "experiment": "Multi-dosing crossover trial on esomeprazole: post-load serum PTH", "format": "in vivo, human", "conditions": "of 22 subjects, baseline 8", "method": "as §1\n(§2) A venous blood sample was obtained at 4 hours after the morning dose of EffCaMgCit or placebo, for the analysis of Ca, PTH, CTX and Mg after 2 weeks and 4 weeks of treatment. […] In the Placebo group (while on esomeprazole), a low or marginally low serum calcium (<9 mg/dL) was encountered in 23% of subjects at 2 weeks and in 18% of subjects at 4 weeks. […] Thus, not only did EffCaMgCit raise serum calcium, but it also corrected low or marginally low serum calcium. […]"}, "serum CTX": {"system": "serum CTX", "experiment": "Multi-dosing crossover trial on esomeprazole: post-load serum CTX (bone resorption marker)", "format": "in vivo, human", "parameters": "dose or concentration left out as unconfirmed", "conditions": "of 22 subjects", "method": "as §1, §2"}, "[3]": {"experiment": "Multi-dosing crossover trial on esomeprazole: post-load serum magnesium", "format": "in vivo, human", "conditions": "for number of subjects with hypomagnesemia or marginal hypomagnesemia (<2 mg/dL): of 22 subjects, baseline 2; for subjects with hypomagnesemia or marginal hypomagnesemia (<2 mg/dL): baseline 9%", "method": "as §1\nSerum magnesium was determined at 2 weeks and 4 weeks at 4 hours after the morning dose. […] At baseline (before starting esomeprazole), 9% of subjects had hypomagnesemia or marginal hypomagnesemia (<2 mg/dL). During treatment with placebo with esomeprazole, hypomagnesemia or marginal hypomagnesemia was found in a higher percentage of subjects (14% at 2 weeks, and 23% at 4 weeks). During treatment with EffCaMgCit with esomeprazole, no subjects had hypomagnesemia or marginal hypomagnesemia. FIGS. 7 and 8."}, "[4]": {"experiment": "Multi-dosing crossover trial on esomeprazole: fractional excretion of magnesium (FEMg)", "format": "in vivo, human", "conditions": "from baseline over 2-4 weeks", "method": "as §1"}, "[5]": {"experiment": "Multi-dosing crossover trial on esomeprazole: 24-h urinary citrate and ammonium (acid load)", "format": "in vivo, human", "conditions": "after 2-4 weeks of treatment", "method": "as §1\n24-h urinary citrate and ammonium, urinary markers of acid-base balance, were determined at baseline and after 2-4 weeks of treatment with esomeprazole (plus placebo) and after treatment with esomeprazole (plus EffCaMgCit). […] FIGS. 10 and 11."}, "serum FGF23": {"system": "serum FGF23", "experiment": "Multi-dosing crossover trial on esomeprazole: post-load serum FGF23", "format": "in vivo, human", "conditions": "4 hours after morning dose, baseline to 4 weeks", "method": "as §1"}, "[6]": {"conditions": "omeprazole use versus non-omeprazole use, FDA Adverse Event Reporting System 2012 (Tamura, 2012); cited from earlier work"}}}
{"smiles": "CC(=O)[O-].CC(=O)[O-].[Ca+2]", "note": "[calcium acetate]", "values": [{"measurement": "serum magnesium after treatment", "setting": "[1]; CKD Stage 3, data not shown", "result": "did not change"}, {"measurement": "serum Mg after treatment", "setting": "[1]; CKD Stage 5D without residual renal function", "result": "did not"}]}
{"smiles": "COc1ccc2nc([S@@+]([O-])Cc3ncc(C)c(OC)c3C)[nH]c2c1", "note": "[esomeprazole]", "values": [{"measurement": "number of subjects with hypocalcemia or marginal hypocalcemia (serum calcium <9 mg/dL)", "setting": "[2]; after 4 weeks", "result": 4, "unit": "subjects"}, {"measurement": "number of subjects with hypocalcemia or marginal hypocalcemia (serum calcium <9 mg/dL)", "setting": "[2]; at 2 weeks", "result": 5, "unit": "subjects"}, {"measurement": "subjects with low or marginally low serum calcium (<9 mg/dL)", "setting": "[2]; at 2 weeks", "result": 23, "unit": "%"}, {"measurement": "subjects with low or marginally low serum calcium (<9 mg/dL)", "setting": "[2]; at 4 weeks", "result": 18, "unit": "%"}, {"measurement": "number of subjects with high serum PTH (>65 pg/ml)", "setting": "serum PTH; at 2 weeks", "result": 15, "unit": "subjects"}, {"measurement": "number of subjects with high serum PTH (>65 pg/ml)", "setting": "serum PTH; at 4 weeks", "result": 10, "unit": "subjects"}, {"measurement": "number of subjects with high serum CTX (upper normal limit)", "setting": "serum CTX; at 2 weeks", "result": "Six"}, {"measurement": "number of subjects with high serum CTX (upper normal limit)", "setting": "serum CTX; at 4 weeks", "result": "Six"}, {"measurement": "number of subjects with hypomagnesemia or marginal hypomagnesemia (<2 mg/dL)", "setting": "[3]; at 2 weeks", "result": 3, "unit": "subjects"}, {"measurement": "subjects with hypomagnesemia or marginal hypomagnesemia (<2 mg/dL)", "setting": "[3]; at 2 weeks", "result": 14, "unit": "%"}, {"measurement": "number of subjects with hypomagnesemia or marginal hypomagnesemia (<2 mg/dL)", "setting": "[3]; at 4 weeks", "result": 5, "unit": "subjects"}, {"measurement": "subjects with hypomagnesemia or marginal hypomagnesemia (<2 mg/dL)", "setting": "[3]; at 4 weeks", "result": 23, "unit": "%"}, {"measurement": "FEMg, change during treatment", "setting": "[4]", "result": "trended downward"}, {"measurement": "24-h urinary ammonium compared with baseline", "setting": "[5]", "result": "marginally higher"}, {"measurement": "24-h urinary citrate compared with baseline", "setting": "[5]", "result": "significantly lower"}, {"measurement": "serum FGF23, change from Baseline", "setting": "serum FGF23", "result": "trend toward a decline"}, {"measurement": "serum FGF23, change from Baseline", "setting": "serum FGF23; listed as PPI", "result": "tended to rise"}]}
{"smiles": "COc1ccc2[nH]c([S+]([O-])Cc3ncc(C)c(OC)c3C)nc2c1", "note": "(centres unmarked) [omeprazole]", "values": [{"measurement": "odds ratio of hypomagnesemia", "setting": "[6]", "result": 2.76}]}
